The values below come from US5340811A, “Isoquinoline-or quinoline-sulfonamide derivative and a pharmaceutical composition comprising the same” (priority 1990, dated 1994).

The conditions of assay [1]: known from literature/patents; cited from earlier work.
For assay [2] the following is noted: known from literature/patents; cited from earlier work. The source holds these as a separate data set.
The test system of another assay is trachea of a guinea pig. The experiment in a line: Effect on trachea in vivo: inhibition of histamine-induced tracheal contraction (modified Konzett-Rossler method). The conditions noted are these: for suppression of histamine-induced bronchial contraction: contraction induced by intravenous administration of 1 mg/kg of histamine (as printed in text); for inhibition in vivo at 1 mg/kg: Cavia porcellus, iv, 0.05 h, compound 1 mg/kg via femoral vein, histamine 20 μg/kg i.v. after 3 minutes, urethane anesthesia, n=3, non-salt compounds used as hydrochloride. From the text: According to a modified method of Konzett-Rossler method [see J. Martinez et al, Bronchial Arterial Injections, vol. […] Urethane was intraperitoneally administered to male guinea pigs weighing 350 to 600 g (Hartley strain, Kuroda Junkei Dobutsu) in an amount of 1.5 g/kg of body weight to anesthetize the animals. Then, cannulae were inserted into the trachea and femoral vein of each animal under urethane anesthesia and fixed. […] Each of the above-mentioned compounds of the present invention was administered to guinea pigs through the femoral vein in an amount of 1 mg/kg of body weight. […] As a solvent for each compound, physiological saline was used. The number of the guinea pigs tested in each group was 3.

Assay [3] relates to tracheal specimens excised from guinea pigs. In words: Inhibitory effect on KCl-induced contraction of tracheal specimens excised from guinea pigs. It is filed as cell-based, guinea pig. The conditions noted are these: Cavia porcellus; dose relaxing KCl (20 mM)-induced contraction to 50%; 37° C.; n=3; non-salt compounds used as hydrochloride; read-out: ED50 (KCl-induced contraction). From the text:
According to a method in which tracheal specimens excised from guinea pigs were used (Takagi and Ozawa, "Yakubutsugaku Jikken (Experiments in Pharmacology)", pp.100-102, 1960, published by Nanzando Japan; and Fujiwara and Shibata, "Yakurigaku Kiso Jikenho (Methods of Fundamental Experiments in Pharmacology)" pp.131-134, 1982, published by Kyourin, Japan), relaxing effect of sulfonamide derivatives of the present invention on bronchial smooth muscle was examined. […] After the KCl-induced contraction became stable, each of the compounds of the present invention was dissolved in distilled water or physiological saline, and the compound solution was cumulatively added into the Magnus tube. The relaxing effect of each of the compounds of the present invention on contracted tracheal specimens was evaluated and a dose-response curve was obtained. A dose required for relaxing KCl-induced contraction to 50%, i.e., ED50 was calculated from the dose-response curve. […] The number of tracheal specimens in each group was 3.

Assay [4] has the same test system. The experiment in a line: Inhibitory effect on PGF2α-induced contraction of tracheal specimens excised from guinea pigs. The class given is cell-based, guinea pig. The settings on record: Cavia porcellus; dose relaxing PGF2α (final 1 μm)-induced contraction to 50%; n=3; non-salt compounds used as hydrochloride; read-out: PGF2α-induced contraction ED50 (Table 18).
Description: Tracheal specimens excised from male guinea pigs weighing 350 to 500 g (Hartley strain, Kuroda Junkei Dobutsu) were contracted in substantially the same manner as in Application Example 1 except that PGF2α (final concentration: 1 μm) was used instead of KCl. After the contraction of the tracheal specimens became stable, each of the compounds (hydrochloride) of the present invention was dissolved in distilled water or physiological saline, and the compound solution was cumulatively added into the Magnus tube in the same manner as in Application Example 1. The relaxing effect of each of the compounds of the present invention on the contracted specimens was evaluated and a dose-response curve was obtained. The dose required for relaxing PGF2α-induced contraction to 50%, i.e., ED50 was calculated form the dose-response curve. […] For comparison, the same procedure as described above was repeated except that aminophylline, comparative compound (1) and comparative compound (2) were individually used instead of the compound of the present invention, to obtain an ED50. The number of specimens in each group was 3.

The inhibition in vivo is the relative decrease from the control value, in per cent.

Molecules are shown by their SMILES. Counter-ions that a name gives are not always drawn.

With `NC1CCCN(S(=O)(=O)c2cccc3cnccc23)C1` (stereo not shown) [1-(5-isoquinolinesulfonyl)-3-aminopiperidine], the vasodilating activity entry in assay [1] was “vasodiletic activity”. In addition, the bronchodilating activity result in assay [2] is on record as “bronchodilating activity”. Turning to `O=S(=O)(NCCNCc1ccc2c(c1)OCO2)c1cccc2cnccc12` [(3), N-[2(3,4-methylenedioxybenzylamino)ethyl]-5-isoquinolinesulfonamide], in the assay on trachea of a guinea pig, the “suppression of histamine-induced bronchial contraction” value (“suppression” for short) is 36%. As for `O=S(=O)(NCCN1CCN(Cc2ccc3c(c2)OCO3)CC1)c1cccc2cnccc12` [(30), 1-(5-isoquinolinesulfonylaminoethyl)-4-(3,4-methylenedioxybenzyl)piperazine], in the assay on trachea of a guinea pig, the inhibition in vivo at 1 mg/kg turned out to be 31%. The same measure, in the same setting: in the case of `O=S(=O)(NCCN1CCCN(Cc2ccc3c(c2)OCO3)CC1)c1cccc2cnccc12` [(31), 1-(5-isoquinolinesulfonylaminoethyl)-4-(3,4-methylenedioxybenzyl)homopiperazine] it was 35%. For the compound `O=S(=O)(NCCN1CCNCC1)c1cccc2c(O)nccc12` [(32), 1-(1-hydroxy-5-isoquinolinesulfonylaminoethyl) piperazine hydrochloride], in assay [3], the EC50 was determined as 27 µM. Still for that read-out and setting: the result for `O=S(=O)(NCCN1CCCNCC1)c1cccc2c(O)nccc12` [(33), 1-(1-hydroxy-5-isoquinolinesulfonylaminoethyl) homopiperazine hydrochloride] reads 24 µM; that for `O=S(=O)(NCCN1CCCN(Cc2ccc3c(c2)OCO3)CC1)c1cccc2c(O)nccc12` [(35), hydrochloride], 18 µM. As to `O=S(=O)(NCCN1CCCNCC1)c1ccc(Cl)c2ncccc12` [(36), 1-(8-chloro-5-quinolinesulfonylaminoethyl)homopiperazine], the inhibition in vivo at 1 mg/kg with trachea of a guinea pig was 22%.

As to `O=S(=O)(NCCN1CCCN(Cc2ccc3c(c2)OCO3)CC1)c1ccc(Cl)c2ncccc12` [(38), 1-(8-chloro-5-quinolinesulfonylaminoethyl)-4-(3,4-methylenedioxybenzyl)homopiperazine], in the assay on trachea of a guinea pig, the inhibition in vivo at 1 mg/kg was 45% and the “suppression” value is 45%.

For the compound `Cn1c(=O)c2[nH]cnc2n(C)c1=O` [Aminophylline, aminophylline], the “suppression” value in the assay with trachea of a guinea pig was 7%. The EC50 in assay [4] was ≥ 200 µM.

For `CCCCCCN(CCN)S(=O)(=O)c1cccc2cnccc12.Cl` [Comparative compound (1), N-(2-aminoethyl)-N-hexyl-5-isoquinolinesulfonamide hydrochloride], the “suppression” value in the assay on trachea of a guinea pig was found to be 9%.

As for `Cl.NC1CCCN(S(=O)(=O)c2cccc3cnccc23)C1` (stereo not shown) [Comparative compound (2), 1-(5-isoquinolinesulfonyl)-3-aminopiperidine hydrochloride], the “suppression” value with trachea of a guinea pig is given as 12%.

Turning to `CCCCCCN(CCN)S(=O)(=O)c1cccc2cnccc12` [N-(2-aminoethyl)-N-hexyl-5-isoquinolinesulfonamide], the vasodilating activity entry in assay [1] is on record as “vasodiletic activity”. Moreover, the bronchodilating activity result in assay [2] is “bronchodilating activity”. On to `N=C(N)NCCNS(=O)(=O)c1cccc2cnccc12` [N-(2-guanidinoethyl)-5-isoquinolinesulfonamide], for which the vasodilating activity entry in assay [1] was “vasodiletic activity”. Besides, the bronchodilating activity entry in assay [2] is recorded as “bronchodilating activity”.
